From PubChem BioAssay (NCI)
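Compound exposure: 48 hours, 5 concentrations, 96-well plates. TGI marks complete inhibition of growth.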

Assays:
Test in all cases: inhibition of tumour cell growth, NCI panel, 48 h
[1] = system: SNB-78 CNS
[2] = system: 786-0 renal
[3] = system: OVCAR-3 ovarian
[4] = system: K-562 leukemia
[5] = system: KM20L2 colon
[6] = system: HCT-116 colon
[7] = system: UACC-257 melanoma
[8] = system: CAKI-1 renal
[9] = system: ACHN renal
[10] = system: SN12C renal
[11] = system: SW-620 colon
[12] = system: NCI-H23 lung
[13] = system: LXFL 529 NSCLC
[14] = system: MOLT-4 leukemia
[15] = system: HCT-15 colon
[16] = system: M19-MEL melanoma
[17] = system: OVCAR-8 ovarian
[18] = system: OVCAR-5 ovarian
[19] = system: DMS 273 small cell lung
[20] = system: SK-MEL-28 melanoma
[21] = system: SF-295 CNS
[22] = system: NCI-H226 lung
[23] = system: HOP-92 NSCLC
[24] = system: A549 NSCLC
[25] = system: EKVX NSCLC
[26] = system: SF-539 CNS
[27] = system: SR leukemia
[28] = system: U251 CNS
[29] = system: RXF 393 renal
[30] = system: RPMI-8226 leukemia
[31] = system: SK-MEL-2 melanoma
[32] = system: UO-31 renal
[33] = system: OVCAR-4 ovarian
[34] = system: COLO 205 colon
[35] = system: SF-268 CNS
[36] = system: NCI-H522 lung
[37] = system: DMS 114 small cell lung
[38] = system: MALME-3M melanoma
[39] = system: SNB-19 CNS
[40] = system: HCC-2998 colon
[41] = system: TK-10 renal
[42] = system: KM12 colon
[43] = system: HT29 colon
[44] = system: A498 renal
[45] = system: IGROV1 ovarian
[46] = system: HOP-62 NSCLC
[47] = system: UACC-62 melanoma
[48] = system: DU-145 prostate
[49] = system: HL-60(TB) leukemia
[50] = system: HOP-18 NSCLC
[51] = system: SK-MEL-5 melanoma
[52] = system: SK-OV-3 ovarian
[53] = system: NCI/ADR-RES ovarian
[54] = system: CCRF-CEM leukemia
[55] = system: SNB-75 CNS
[56] = system: DLD-1 colon
[57] = system: LOX IMVI melanoma
[58] = system: M14 melanoma
[59] = system: NCI-H460 lung

Measured: TGI

COC(=O)c1ccc(Cl)cc1NC(=O)C1CCCCC1
not listed: [44] | [45] | [46] | [47] | [48] | [49] | [50] | [51] | [52] | [53] | [54] | [55] | [56] | [57] | [58] | [59]
> 100 µM: all other assays above

CCCCC(=O)OC[n+]1ccc2c(C)c3[nH]c4ccccc4c3c(C)c2c1
1.64 µM: [56]
1.81 µM: [9]
3.01 µM: [14]
2 µM: [10] | [26] | [42]
2.93 µM: [49] | [53]
1.59 µM: [15]
2.84 µM: [51]
3.69 µM: [32]
2.64 µM: [52]
2.79 µM: [5]
6.23 µM: [45]
6.44 µM: [23]
5.01 µM: [41]
2.05 µM: [46]
1.62 µM: [2]
1.97 µM: [21]
2.44 µM: [43]
2.59 µM: [55]
1.72 µM: [47]
2.62 µM: [44]
2.98 µM: [38]
2.52 µM: [29]
4.08 µM: [54]
2.31 µM: [27]
11.5 µM: [31]
1.82 µM: [18]
2.06 µM: [22]
2.22 µM: [34]
4.56 µM: [8]
9.74 µM: [50]
2.73 µM: [48]
2.33 µM: [36]
0.978 µM: [40]
2.54 µM: [3]
3.04 µM: [25]
1.63 µM: [4]

O=c1[nH]cnc2c1CCCN2
not listed: [19] | [22] | [26] | [33] | [44] | [48] | [53] | [59]
> 100 µM: all other assays above

CCOC(=O)c1ccc(NC(=O)SCCC(=O)O)cc1
23.1 µM: [55]
54 µM: [35]
not listed: [8] | [16] | [23] | [33] | [36] | [38] | [48] | [50] | [51] | [52] | [53]
> 100 µM: all other assays above
